Here are results for one compound from patent US20200397808A1, “TREATMENT OF STEROID-RESISTANT DISEASE USING AN ANTHOCYANIN AND A CORTICOSTEROID” (THE CLEVELAND CLINIC FOUNDATION, priority 2017, published 2020).

Assay [1] has as its target T1, IL-17A and IL-17ARA (IL-17A receptor subunit) interaction (Homo sapiens, UniProt Q96F46).
T1 sequence (Q96F46 33-320 limits assumed): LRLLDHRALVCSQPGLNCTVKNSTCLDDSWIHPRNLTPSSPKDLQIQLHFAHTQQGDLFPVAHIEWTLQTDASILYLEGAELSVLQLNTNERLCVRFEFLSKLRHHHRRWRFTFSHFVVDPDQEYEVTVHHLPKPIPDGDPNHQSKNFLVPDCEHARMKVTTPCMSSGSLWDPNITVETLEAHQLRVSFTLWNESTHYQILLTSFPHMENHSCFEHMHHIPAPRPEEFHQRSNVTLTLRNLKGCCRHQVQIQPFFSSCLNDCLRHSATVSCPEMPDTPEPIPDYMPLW
In words: IL-17A binding to IL-17ARA inhibition. Conditions: read-out: IC50, inhibitory activity for IL-17A binding to IL-17ARA.

The subject of assay [2] is HDM-induced neutrophilic airway inflammation. In words: HDM/CFA-induced acute neutrophilic steroid-resistant severe asthma model. The format is in vivo, C57BL/6 mice. More on the design: airway inflammation (BAL cell count, inflammatory gene expression in the lung): dose or concentration left out as unconfirmed. As for the experimental part:
FIGS. 1A and 1B provide graphs showing C3G attenuates neutrophilic airway inflammation in a HDM-induced acute asthma model. A. HDM/CFA-induced neutrophilic asthma in 8-week female C57BL/6 mice (n=8 per group). B. Shown are total and differential cell counts in BAL cell count. HDM, house dust mite. […] DEX and C3G were delivered to mice 24 h before HDM sensitization and 1 h before HDM challenge. Mice were sacrificed after HDM challenge. i.p., intraperitoneally; i.n. intranasally.
FIGS. 2A and 2B provide graphs showing Oral C3G attenuates neutrophilic airway inflammation in a HDM-induced acute asthma model. A. HDM/CFA-induced neutrophilic asthma in 8-week female C57BL/6 mice (n=5 per group). B. Shown are total and differential cell counts in BAL cell count. HDM, house dust mite. Treatment groups: Control (DMSO); Low DEX (0.3 mg/kg BW, i.p.); Low DEX+10 mg C3G (per mouse); Low DEX+20 mg C3G (per mouse); DEX and C3G were delivered to mice 24 h before HDM sensitization and 1 h before HDM challenge. Mice were sacrificed after HDM challenge.
C3G attenuates neutrophilic airway inflammation in a HDM-induced acute asthma model. House dust mite (HDM), a natural allergen to which asthmatics are often sensitized, can induce neutrophilic airway inflammation, which is often associated with steroid-resistant severe asthma. The inventors have established an HDM/CFA-induced neutrophilic severe asthma model. The ability of C3G in combination with low-dose DEX (low DEX) was evaluated in alleviating neutrophilic airway inflammation in a HDM-induced steroid-resistant severe asthma model. Eight-week WT C57BL/6 female mice were sensitized subcutaneously (s.c.) with HDM (100 μg per mouse) in Complete Freund's Adjuvant (CFA) on day 0 and subsequently challenged (i.n.) with HDM (100 μg per mouse) on day 14. BAL cell counting and tissue collection were performed after 24 h of last HDM challenge. […]

In assay [3] the test system is Th17-induced neutrophilic airway inflammation. In words: Th17 cell-mediated neutrophilic asthma model. The format is in vivo, C57BL/6 mice. Conditions: C3G alone, 200 μg i.p./100 μg i.n per mouse. As for the experimental part:
FIGS. 3A and 3B provide graphs showing C3G attenuates neutrophilic airway inflammation in a Th17-induced asthma model. A. HDM/CFA-induced neutrophilic asthma in 8-week female C57BL/6 mice (n=5 per group). B. Shown are total and differential cell counts in BAL cell count. HDM, house dust mite. Treatment groups: Control (DMSO); Low DEX (0.3 mg/kg BW, i.p.); C3G (200 μg i.p./100 μg i.n per mouse); Low DEX/C3G. DEX and C3G were delivered to mice 1 h before HDM challenges. Mice were sacrificed after the last HDM challenge.
C3G attenuates neutrophilic airway inflammation in a Th17-induced asthma model. To further confirm the synergistic effect of DEX/C3G in IL-17A-driven asthma, the efficacy of C3G was tested in a TH17 cell-mediated neutrophilic asthma model (FIG. 3).

As to `OC[C@H]1O[C@@H](Oc2cc3c(O)cc(O)cc3[o+]c2-c2ccc(O)c(O)c2)[C@H](O)[C@@H](O)[C@@H]1O` [C3G, Cyanidin-3-glucoside], the IC50 in assay [1] was found to be 6.88 µM. Also, in assay [2] (C3G alone), the “airway inflammation (BAL cell count, inflammatory gene expression in the lung)” value is listed as “reduced to some degree”. Also, the “airway inflammation (BAL cell count)” value in assay [2] (oral C3G 20 mg/mouse in the presence of low DEX, versus 10 mg/mouse) is recorded as “did not improve the efficacy further”; in assay [2] (oral C3G by gavage 10 mg/mouse in the presence of low DEX), “able to inhibit airway inflammation”. Moreover, the “neutrophilic airway inflammation (BAL cell count)” value in assay [3] is “alleviated the inflammation dramatically”.

The term IC50 denotes the concentration at which inhibition is half-maximal.
